Experimental data reported in patent US8334286B2, “Substituted pyrrolo[1,2-A] pyrazines, compositions containing these, processes of making these, and uses thereof” (Neurotune AG, priority 2008, dated 2012).

Assays:
[1] = test system: paclitaxel-induced hyperalgesia; assay: Paclitaxel-induced hyperalgesia in the rat (paw-pressure test); assay type: in vivo; settings: PCT-treated rats, mean ± S.E.M.; for Mechanical threshold (g), After Treatment 15 min: 15 min after treatment; for Mechanical threshold (g), After Treatment 30 min: 30 min after treatment; for Mechanical threshold (g), After Treatment 45 min: 45 min after treatment
Protocol: In all methods, paw mechanical sensitivity was determined using either the paw pressure test or the incapacitance test. The paw pressure test utilizes a Randall & Selitto apparatus, exerting a force that increases at constant rate (32 g/s). The stimulus at which rats withdrawn the paw was evaluated before and at different times after treatment. Results represent the mean of mechanical thresholds expressed as grams. To avoid any possible damage to the animal paw the maximum applied force was fixed at 240 g. Peripheral neuropathy is induced by repeated administration of vincristine, paclitaxel or oxaliplatin to adult male Sprague-Dawley rats (150-200 g, supplier Harlan). The following protocols were used respectively: • Vincristine: the drug was injected by intravenous route at the dose of 150 μg/kg. The treatment was performed every 2 days, for 5 times, until a cumulative dose of 750 μg/kg was reached. Paw pressure test was performed 4 days after the last injection (Marchand F. et al. 2003, Brain Res. 980:117-120). • Paclitaxel: paclitaxel (PCT) neuropathy was induced by intraperitoneal administration of 0.5 mg/kg once a day, on days 1, 3, 5 and 8. Cumulative paclitaxel dose was 2 mg/kg. The pharmacological test was performed 14-18 days after the last paclitaxel injection (Polomano R. C. et al. 2001, Pain 94:293-304). • Oxaliplatin: 2.4 mg/kg were injected by intraperitoneal route for 5 consecutive days followed by 2 days suspension (one cicle). A total of 3 cycles was performed, reaching a cumulative dose of 36 mg/kg (Cavaletti G. 2001, Eur. J. Cancer 37:2457-2463). The test was performed 48 h after the last oxaliplatin injection. 2. Osteoarthritic Pain

[2] = test system: MIA-induced hyperalgesia; assay: MIA-induced hyperalgesia in the rat (incapacitance test), osteoarthritic pain; assay type: in vivo; settings: MIA-treated rats, grams of the right paw, mean ± S.E.M.
Protocol: In all methods, paw mechanical sensitivity was determined using either the paw pressure test or the incapacitance test. […] Osteoarthritis was induced by a single administration of 2 mg (in a volume of 25 μl) of monosodium iodoacetate (MIA) into the left knee joint of anaesthetized rats (male adult Sprague Dawley rats, 150-200 g, supplier Harlan) (Fernihough J. 2004, Pain 112:83-93). This treatment induces the progressive degeneration of the joint and the development of hyperalgesia, mimicking at the histological and behavioral levels what observed in humans. Pharmacological test was performed 7 days after treatment.

[3] = test system: MIA-induced hyperalgesia; assay: MIA-induced hyperalgesia in the rat (paw-pressure test), osteoarthritic pain; assay type: in vivo; settings: MIA-treated rats, mean ± S.E.M.; for Mechanical threshold (g), After Treatment 15 min / Mechanical threshold (g), After Treatment 30 min / Mechanical threshold (g), After Treatment 45 min: 3 mg/kg i.v.; for Mechanical threshold (g), After Treatment 15 min: 15 min after treatment; for Mechanical threshold (g), After Treatment 30 min: 30 min after treatment; for Mechanical threshold (g), After Treatment 45 min: 45 min after treatment; for Mechanical threshold (g), Before Treatment basal: group 3 mg/kg i.v.
Protocol: In all methods, paw mechanical sensitivity was determined using either the paw pressure test or the incapacitance test. The paw pressure test utilizes a Randall & Selitto apparatus, exerting a force that increases at constant rate (32 g/s). The stimulus at which rats withdrawn the paw was evaluated before and at different times after treatment. Results represent the mean of mechanical thresholds expressed as grams. To avoid any possible damage to the animal paw the maximum applied force was fixed at 240 g. Osteoarthritis was induced by a single administration of 2 mg (in a volume of 25 μl) of monosodium iodoacetate (MIA) into the left knee joint of anaesthetized rats (male adult Sprague Dawley rats, 150-200 g, supplier Harlan) (Fernihough J. 2004, Pain 112:83-93). This treatment induces the progressive degeneration of the joint and the development of hyperalgesia, mimicking at the histological and behavioral levels what observed in humans. Pharmacological test was performed 7 days after treatment.

[4] = 3 mg/kg i.v., 15 min after treatment
[5] = 3 mg/kg i.v., 30 min after treatment
[6] = 3 mg/kg i.v., 45 min after treatment
[7] = before treatment (basal), group 3 mg/kg i.v.

Row | SMILES | melting point [°C] | Mechanical threshold (g), After Treatment 15 min ([1]; 3 mg/kg i.v.) [g] | Mechanical threshold (g), After Treatment 30 min ([1]; 3 mg/kg i.v.) [g] | Mechanical threshold (g), After Treatment 45 min ([1]; 3 mg/kg i.v.) [g] | further results
1 | O=C1CC[C@@H]2CN(S(=O)(=O)c3cccnc3)CCN12 [Example 16, (R)-2-(pyridin-3-ylsulfonyl)hexahydro pyrrolo[1,2-a]pyrazin-6(7H)-one] | 165 to 166 |  |  |  | 
2 | O=C1CC[C@@H]2CN(S(=O)(=O)c3ccc(F)c(F)c3)CCN12 [Example 5, (R)-(+)-2-(3,4-difluorophenylsulfonyl)hexahydro pyrrolo[1,2-a]pyrazin-6(7H)-one] | 208 to 209 |  |  |  | 
3 | O=C1CC[C@@H]2CN(S(=O)(=O)c3cccc(C(F)(F)F)c3)CCN12 [Example 9, (R)-(+)-2-(3-(tifluoromethyl)phenylsulfonyl) hexahydropyrrolo [1,2-a]pyrazin-6(7H)-one] | 172 to 174 | 41.6 ± 3.6 | 44.5 ± 2.8 | 42.9 ± 4.3 | 
4 | O=C(c1ccccc1F)N1CCN2C(=O)CC[C@H]2C1 [Example 18, (S)-2-(2-fluorobenzoyl) hexahydropyrrolo [1,2-a]pyrazin-6(7H)-one] | 123 to 124 |  |  |  | 
5 | Cc1ccccc1S(=O)(=O)N1CCN2C(=O)CC[C@@H]2C1 [Example 6, (R)-(+)-2-(o-tolylsulfonyl)hexahydro pyrrolo[1,2-a]pyrazin-6(7H)-one] | 68 to 70 | 49.4 ± 3.0 | 48.8 ± 2.8 | 40.7 ± 2.2 | 
6 | O=C1CC[C@@H]2CN(S(=O)(=O)c3ccccc3C(F)(F)F)CCN12 [Example 8, (R)-(+)-2-(2-(trifluoromethyl)phenylsulfonyl) hexahydropyrrolo [1,2-a]pyrazin-6(7H)-one] | 157 to 158 | 42.2 ± 3.0 | 39.3 ± 3.2 | 37.5 ± 3.2 | Weight borne on right hind paw [2, 4]: 119.0 ± 7.5 g; Weight borne on right hind paw [2, 5]: 113.5 ± 6.6 g; Weight borne on right hind paw [2, 6]: 72.9 ± 6.3 g; Weight borne on right hind paw [2, 7]: 40.4 ± 8.2 g; Mechanical threshold (g), After Treatment 15 min [3]: 59.4 ± 1.6 g; Mechanical threshold (g), After Treatment 30 min [3]: 63.8 ± 2.6 g; Mechanical threshold (g), After Treatment 45 min [3]: 50.2 ± 3.7 g; Mechanical threshold (g), Before Treatment basal [3]: 22.6 ± 2.0 g
7 | COc1cccc(S(=O)(=O)N2CCN3C(=O)CC[C@@H]3C2)c1 [Example 15, (R)-2-(3-methoxyphenylsulfonyl)hexahydro pyrrolo[1,2-a]pyrazin-6(7H)-one] | 144 to 145 |  |  |  | 
8 | Cc1cccc(S(=O)(=O)N2CCN3C(=O)CC[C@@H]3C2)c1 [Example 7, (R)-(+)-2-(m-tolylsulfonyl)hexahydro pyrrolo[1,2-a]pyrazin-6(7H)-one] | 133 to 134 | 38.7 ± 2.2 | 47.6 ± 2.4 | 36.4 ± 2.5 | 
9 | O=C1CC[C@H]2CN(S(=O)(=O)c3cccc(F)c3)CCN12 [Example 2, (S)-(−)2-(3-fluorophenylsulfonyl)hexahydro pyrrolo[1,2-a]pyrazin-6(7H)-one] | 177 to 179 |  |  |  | 
10 | N#Cc1ccccc1S(=O)(=O)N1CCN2C(=O)CC[C@@H]2C1 [Example 11, (R)-2-(6-oxohexahydropyrrolo[1,2-a]pyrazin-2(1H)-ylsulfonyl) benzonitrile] | 198 to 199 | 45.3 ± 1.6 | 50.7 ± 2.3 | 48.4 ± 2.7 | 
11 | O=C1CC[C@@H]2CN(S(=O)(=O)c3cccc(F)c3)CCN12 [Example 4, (R)-(+)2-(3-fluorophenylsulfonyl)hexahydro pyrrolo[1,2-a]pyrazin-6(7H)-one] | 179 to 180 | 51.1 ± 2.4 | 55.8 ± 2.4 | 47.3 ± 2.9 | Weight borne on right hind paw [2, 4]: 90.1 ± 8.2 g; Weight borne on right hind paw [2, 5]: 96.2 ± 7.5 g; Weight borne on right hind paw [2, 6]: 72.5 ± 7.2 g; Weight borne on right hind paw [2, 7]: 41.4 ± 5.8 g; Mechanical threshold (g), After Treatment 15 min [3]: 41.4 ± 3.1 g; Mechanical threshold (g), After Treatment 30 min [3]: 53.0 ± 3.5 g; Mechanical threshold (g), After Treatment 45 min [3]: 42.6 ± 3.2 g; Mechanical threshold (g), Before Treatment basal [3]: 23.1 ± 2.5 g
12 | O=C(c1cccc(F)c1)N1CCN2C(=O)CC[C@@H]2C1 [Example 21, (R)-2-(3-fluorobenzoyl) hexahydropyrrolo [1,2-a]pyrazin-6(7H)-one] | 161 to 162 | 40.9 ± 3.5 | 46.2 ± 4.3 | 37.6 ± 4.3 | 
13 | Cc1ccc(N2CCN3C(=O)CCC3C2=O)cc1 (centres unmarked) [Example 24, 2-p-Tolyl-tetrahydro-pyrrolo[1,2-a]pyrazine-1,6-dione] | 115 to 117 | 42.2 ± 2.6 | 43.4 ± 4.1 | 36.5 ± 4.2 | 
14 | N#Cc1cccc(S(=O)(=O)N2CCN3C(=O)CC[C@@H]3C2)c1 [Example 12, (R)-3-(6-oxohexahydropyrrolo[1,2-a]pyrazin-2(1H)-ylsulfonyl) benzonitrile] | 180 to 181 | 39.8 ± 3.7 | 41.5 ± 3.8 | 39.2 ± 4.4 | 
15 | O=C(c1ccccc1F)N1CCN2C(=O)CC[C@@H]2C1 [Example 20, (R)-2-(2-fluorobenzoyl) hexahydropyrrolo [1,2-a]pyrazin-6(7H)-one] | 123 to 124 | 41.4 ± 2.3 | 45.7 ± 3.5 | 35.8 ± 3.0 | 
16 | N#Cc1ccc(S(=O)(=O)N2CCN3C(=O)CC[C@@H]3C2)cc1 [Example 13, (R)-(+)-4-(6-oxohexahydropyrrolo[1,2-a]pyrazin-2(1H)-ylsulfonyl) benzonitrile] | 242 to 243 |  |  |  | Mechanical threshold (g), After Treatment 15 min ([1]; 1 mg/kg i.v.): 35.6 ± 3.1 g; Mechanical threshold (g), After Treatment 30 min ([1]; 1 mg/kg i.v.): 39.7 ± 2.4 g; Mechanical threshold (g), After Treatment 45 min ([1]; 1 mg/kg i.v.): 34.8 ± 3.3 g
17 | O=C1CC[C@H]2CN(S(=O)(=O)c3ccccc3F)CCN12 [Example 1, (S)-(−)2-(2-fluorophenylsulfonyl)hexahydro pyrrolo[1,2-a]pyrazin-6(7H)-one] | 142 to 144 |  |  |  | 
18 | O=C1CC[C@@H]2CN(S(=O)(=O)c3ccc(C(F)(F)F)cc3)CCN12 [Example 10, (R)-(+)-2-(4-(trifluoromethyl)phenylsulfonyl) hexahydropyrrolo [1,2-a]pyrazin-6(7H)-one] | 226 to 227 |  |  |  | 
19 | O=C(c1cccc(F)c1)N1CCN2C(=O)CC[C@H]2C1 [Example 19, (S)-2-(3-fluorobenzoyl) hexahydropyrrolo [1,2-a]pyrazin-6(7H)-one] | 161 to 162 |  |  |  | 
